The values below come from patent publication US7851467B2, “Carbamate compounds as 5-HT4 receptor agonists” (Theravance, Inc., priority 2005, dated 2010).

Data set [1] deals with T1, human 5-HT4(c) receptor (Homo sapiens, UniProt Q13639).
T1 construct: expressed in transfected cells; host or cells: HEK-293
Briefly: Whole-cell cAMP accumulation flashplate assay with HEK-293 cells expressing human 5-HT4(c) receptors. The format is cell-based. The settings on record: cell line (1) having a density of about 0.5-0.6 μmol/mg protein, read-out: pEC50 value (converted). The method, then: Assay 3: Whole-Cell cAMP Accumulation Flashplate Assay with HEK-293 Cells Expressing Human 5-HT4(c) Receptors
In this assay, the functional potency of a test compound was determined by measuring the amount of cyclic AMP produced when HEK-293 cells expressing 5-HT4 receptors were contacted with different concentrations of test compound.
HEK-293 (human embryonic kidney) cells stably-transfected with cloned human 5-HT4(c) receptor cDNA were prepared expressing the receptor at two different densities: (1) at a density of about 0.5-0.6 pmol/mg protein, as determined using a [^3H]-GR113808 membrane radioligand binding assay, and (2) at a density of about 6.0 pmol/mg protein. […]
Cells were grown to roughly 60-80% confluency. […] The cells were counted with a Coulter counter (count above 8 μm, flask yield was 1-2×10^7 cells/flask). […]
Cells were grown and prepared as described above. […] Bound radioactivity was quantified by scintillation proximity spectroscopy using the Topcount (Packard BioScience Co., Meriden, Conn.).
The amount of cAMP produced per mL of reaction was extrapolated from the cAMP standard curve, according to the instructions provided in the manufacturer's user manual. Data were analyzed by nonlinear regression analysis with the GraphPad Prism Software package using the 3-parameter sigmoidal dose-response model (slope constrained to unity). […]
(In general: cAMP levels reflect the balance of adenylyl cyclase and phosphodiesterase activity.)

Data set [2] deals with Caco-2 (colon, adenocarcinoma; human) cell monolayer. Briefly: Caco-2 permeation assay (in vitro model of oral bioavailability). The format is in vitro ADME. The settings on record: 100 μM test compound, 37° C., 60 min. The method, then:
Assay 5: In Vitro Model of Oral Bioavailability: Caco-2 Permeation Assay
The Caco-2 permeation assay was performed to model the ability of test compounds to pass through the intestine and get into the blood stream after oral administration. The rate at which test compounds in solution permeate a cell monolayer designed to mimic the tight junction of human small intestinal monolayers was determined.
Caco-2 (colon, adenocarcinoma; human) cells were obtained from ATCC (American Type Culture Collection; Rockville, Md.). For the permeation study, cells were seeded at a density of 63,000 cells/cm^2 on pre-wetted transwells polycarbonate filters (Costar; Cambridge, Mass.). A cell monolayer was formed after 21 days in culture. Following cell culture in the transwell plate, the membrane containing the cell monolayer was detached from the transwell plate and inserted into the diffusion chamber (Costar; Cambridge, Mass.). The diffusion chamber was inserted into the heating block which was equipped with circulating external, thermostatically regulated 37° C. water for temperature control. […]
The permeation study was performed with test compound concentrations at 100 μM and with ^14C-mannitol to monitor the integrity of the monolayer. […] Samples were analyzed by HPLC or liquid scintillation counting for test compound and mannitol concentrations. The permeation coefficient (Kp) in cm/sec was calculated. […]
Background: Caco-2 cells form a polarised layer with tight junctions and transporters.

SMILES strings stand for the structures.

T1 sequence (Q13639 1-380 isoform Q13639-4): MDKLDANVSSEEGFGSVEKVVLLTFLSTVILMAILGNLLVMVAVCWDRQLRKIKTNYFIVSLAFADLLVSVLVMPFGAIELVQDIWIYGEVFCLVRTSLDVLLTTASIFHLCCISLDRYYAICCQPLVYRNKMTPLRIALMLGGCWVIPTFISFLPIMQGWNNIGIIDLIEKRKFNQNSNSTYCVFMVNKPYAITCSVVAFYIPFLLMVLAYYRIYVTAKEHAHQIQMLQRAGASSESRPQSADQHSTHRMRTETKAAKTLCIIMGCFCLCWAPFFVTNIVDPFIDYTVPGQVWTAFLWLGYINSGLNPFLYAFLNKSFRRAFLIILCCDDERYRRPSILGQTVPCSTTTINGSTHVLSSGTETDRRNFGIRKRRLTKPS

As to `CC(C)n1c(=O)n(C(=O)N[C@H]2C[C@H]3CC[C@@H](C2)N3CCCOC(=O)N2CCN(C(=O)C3CCCO3)CC2)c2ccccc21` (stereo partly drawn) [Example 1, 4-(tetrahydrofuran-2-carbonyl)piperazine-1-carboxylic acid 3-{(1S,3R,5R)-3-[(3-isopropyl-2-oxo-2,3-dihydrobenzoimidazole-1-carbonyl)amino]-8-aza-bicyclo[3.2.1]oct-8-yl}propyl ester], in data set [1], the EC50 was 3.98 nM. Further, the “Kp value (permeation coefficient)” value in data set [2] turned out to be 60 ×10⁻⁶ cm/s.
